# Data taken from paper PMC10035947, “Development of novel anilinoquinazoline-based carboxylic acids as non-classical carbonic anhydrase IX and XII inhibitors” (Journal of Enzyme Inhibition and Medicinal Chemistry, 2023).
# Experiments:
# hCA II = target: T1, hCA II (Homo sapiens, UniProt P00918); experiment: stopped flow CO2 hydrase assay; format: biochemical; settings: mean from 3 assays
# T1 construct: made in house
# Outline: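 Stopped-flow CO2 hydration with phenol red (0.2 mM) at 557 nm in 20 mM Hepes pH 7.5, 20 mM Na2SO4, CO2 1.7–17 mM, recombinant enzyme. Inhibitor preincubated 15 min at room temperature; uncatalyzed rate subtracted, Ki via Cheng-Prusoff, mean of ≥3 determinations.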
# EKVX = experiment: NCI SRB assay; format: cell-based, human; settings: for GI%: 10 μM; for Growth Percent: 1.00E-5 Molar
# LOX IMVI = experiment: NCI SRB assay; format: cell-based, human; settings: for GI%: 10 μM; for Growth Percent: 1.00E-5 Molar
# HCT-15 = experiment: NCI SRB assay; format: cell-based, human; settings: for GI%: HCT-15, 10 μM; for Growth Percent: HCT-15, 1.00E-5 Molar
# BT-549 = experiment: NCI SRB assay; format: cell-based, human; settings: for GI%: BT-549, 10 μM; for Growth Percent: BT-549, 1.00E-5 Molar
# MOLT-4 = experiment: NCI SRB assay; format: cell-based, human; settings: for GI%: MOLT-4, 10 μM; for Growth Percent: MOLT-4, 1.00E-5 Molar
# ACHN = experiment: NCI SRB assay; format: cell-based, human; settings: for GI%: 10 μM; for Growth Percent: 1.00E-5 Molar
# T-47D = experiment: NCI SRB assay; format: cell-based, human; settings: for GI%: 10 μM; for Growth Percent: 1.00E-5 Molar
# CAKI-1 = experiment: NCI SRB assay; format: cell-based, human; settings: for GI%: CAKI-1, 10 μM; for Growth Percent: CAKI-1, 1.00E-5 Molar
# OVCAR-4 = experiment: NCI SRB assay; format: cell-based, human; settings: for GI%: OVCAR-4, 10 μM; for Growth Percent: OVCAR-4, 1.00E-5 Molar
# HOP-62 = experiment: NCI SRB assay; format: cell-based, human; settings: for GI%: HOP-62, 10 μM; for Growth Percent: HOP-62, 1.00E-5 Molar
# SNB-75 = experiment: NCI SRB assay; format: cell-based, human; settings: for GI%: SNB-75, 10 μM; for Growth Percent: SNB-75, 1.00E-5 Molar
# NCI-H460 = experiment: NCI SRB assay; format: cell-based, human; settings: for GI%: NCI-H460, 10 μM; for Growth Percent: NCI-H460, 1.00E-5 Molar
# HL-60(TB) = experiment: NCI SRB assay; format: cell-based, human; settings: HL-60(TB); for GI%: 10 μM; for Growth Percent: 1.00E-5 Molar
# MCF7 = experiment: NCI SRB assay; format: cell-based, human; settings: for GI%: MCF7, 10 μM; for Growth Percent: MCF7, 1.00E-5 Molar
# NCI-H23 = experiment: NCI SRB assay; format: cell-based, human; settings: for GI%: NCI-H23, 10 μM; for Growth Percent: NCI-H23, 1.00E-5 Molar
# M14 = experiment: NCI SRB assay; format: cell-based, human; settings: for GI%: M14, 10 μM; for Growth Percent: M14, 1.00E-5 Molar
# A549/ATCC = experiment: NCI SRB assay; format: cell-based, human; settings: A549/ATCC; for GI%: 10 μM; for Growth Percent: 1.00E-5 Molar
# SW-620 = experiment: NCI SRB assay; format: cell-based, human; settings: for GI%: SW-620, 10 μM; for Growth Percent: SW-620, 1.00E-5 Molar
# UACC-62 = experiment: NCI SRB assay; format: cell-based, human; settings: for GI%: UACC-62, 10 μM; for Growth Percent: UACC-62, 1.00E-5 Molar
# COLO 205 = experiment: NCI SRB assay; format: cell-based, human; settings: for GI%: COLO 205, 10 μM; for Growth Percent: COLO 205, 1.00E-5 Molar
# OVCAR-5 = experiment: NCI SRB assay; format: cell-based, human; settings: for GI%: OVCAR-5, 10 μM; for Growth Percent: OVCAR-5, 1.00E-5 Molar
# SK-OV-3 = experiment: NCI SRB assay; format: cell-based, human; settings: for GI%: SK-OV-3, 10 μM; for Growth Percent: SK-OV-3, 1.00E-5 Molar
# 786-0 = experiment: NCI SRB assay; format: cell-based, human; settings: for GI%: 786-0, 10 μM; for Growth Percent: 786-0, 1.00E-5 Molar
# CCRF-CEM = experiment: NCI SRB assay; format: cell-based, human; settings: for GI%: 10 μM; for Growth Percent: 1.00E-5 Molar
# U251 = experiment: NCI SRB assay; format: cell-based, human; settings: for GI%: U251, 10 μM; for Growth Percent: U251, 1.00E-5 Molar
# IGROV1 = experiment: NCI SRB assay; format: cell-based, human; settings: for GI%: IGROV1, 10 μM; for Growth Percent: IGROV1, 1.00E-5 Molar
smiles,measurement,setting,value
"COc1ccc(-c2nc(Nc3ccccc3C(=O)O)c3ccccc3n2)cc1 [6c, 2-((2–(4-Methoxyphenyl)quinazolin-4-yl)amino)benzoic acid]",Ki,hCA II,83.1 µM
same,GI%,EKVX,66%
same,Growth Percent,EKVX,33.92%
same,GI%,LOX IMVI,50%
same,Growth Percent,LOX IMVI,49.53%
same,GI%,HCT-15,61%
same,Growth Percent,HCT-15,39.33%
same,GI%,BT-549,62%
same,Growth Percent,BT-549,37.53%
same,GI%,MOLT-4,64%
same,Growth Percent,MOLT-4,36.24%
same,GI%,ACHN,54%
same,Growth Percent,ACHN,46.21%
same,GI%,T-47D,71%
same,Growth Percent,T-47D,29.31%
same,GI%,CAKI-1,53%
same,Growth Percent,CAKI-1,46.89%
same,GI%,OVCAR-4,66%
same,Growth Percent,OVCAR-4,34.25%
same,GI%,HOP-62,49%
same,Growth Percent,HOP-62,51.05%
same,GI%,SNB-75,68%
same,Growth Percent,SNB-75,32.48%
same,GI%,NCI-H460,89%
same,Growth Percent,NCI-H460,11.57%
same,GI%,HL-60(TB),67%
same,Growth Percent,HL-60(TB),32.98%
same,GI%,MCF7,49%
same,Growth Percent,MCF7,51.24%
same,GI%,NCI-H23,38%
same,Growth Percent,NCI-H23,62.10%
same,GI%,M14,48%
same,Growth Percent,M14,52.09%
same,GI%,A549/ATCC,60%
same,Growth Percent,A549/ATCC,39.61%
same,GI%,SW-620,61%
same,Growth Percent,SW-620,39.05%
same,GI%,UACC-62,44%
same,Growth Percent,UACC-62,55.88%
same,GI%,COLO 205,– (Only GI% higher than 20% are shown)
same,Growth Percent,COLO 205,81.88%
same,GI%,OVCAR-5,27%
same,Growth Percent,OVCAR-5,73.07%
same,GI%,SK-OV-3,53%
same,Growth Percent,SK-OV-3,47.19%
same,GI%,786-0,48%
same,Growth Percent,786-0,51.90%
same,GI%,CCRF-CEM,58%
same,Growth Percent,CCRF-CEM,42.05%
same,GI%,U251,66%
same,Growth Percent,U251,34.16%
same,GI%,IGROV1,21%
same,Growth Percent,IGROV1,78.77%
"Cc1ccc(-c2nc(Nc3cccc(C(=O)O)c3)c3ccccc3n2)cc1 [7b, 3-((2-(p-Tolyl)quinazolin-4-yl)amino)benzoic acid]",Ki,hCA II,41.7 µM
same,GI%,EKVX,41%
same,Growth Percent,EKVX,58.70%
same,GI%,LOX IMVI,– (Only GI% higher than 20% are shown)
same,Growth Percent,LOX IMVI,81.15%
same,GI%,HCT-15,55%
same,Growth Percent,HCT-15,45.38%
same,GI%,BT-549,– (Only GI% higher than 20% are shown)
same,Growth Percent,BT-549,101.46%
same,GI%,MOLT-4,– (Only GI% higher than 20% are shown)
same,Growth Percent,MOLT-4,89.24%
same,GI%,ACHN,24%
same,Growth Percent,ACHN,76.34%
same,GI%,T-47D,– (Only GI% higher than 20% are shown)
same,Growth Percent,T-47D,83.81%
same,GI%,CAKI-1,– (Only GI% higher than 20% are shown)
same,Growth Percent,CAKI-1,82.90%
same,GI%,OVCAR-4,23%
same,Growth Percent,OVCAR-4,77.91%
same,GI%,HOP-62,– (Only GI% higher than 20% are shown)
same,Growth Percent,HOP-62,84.19%
same,GI%,SNB-75,– (Only GI% higher than 20% are shown)
same,Growth Percent,SNB-75,91.06%
same,GI%,NCI-H460,– (Only GI% higher than 20% are shown)
same,Growth Percent,NCI-H460,97.53%
same,GI%,HL-60(TB),– (Only GI% higher than 20% are shown)
same,Growth Percent,HL-60(TB),85.11%
same,GI%,MCF7,– (Only GI% higher than 20% are shown)
same,Growth Percent,MCF7,85.28%
same,GI%,NCI-H23,– (Only GI% higher than 20% are shown)
same,Growth Percent,NCI-H23,95.42%
same,GI%,M14,– (Only GI% higher than 20% are shown)
same,Growth Percent,M14,83.59%
same,GI%,A549/ATCC,– (Only GI% higher than 20% are shown)
same,Growth Percent,A549/ATCC,90.82%
same,GI%,SW-620,– (Only GI% higher than 20% are shown)
same,Growth Percent,SW-620,94.08%
same,GI%,UACC-62,– (Only GI% higher than 20% are shown)
same,Growth Percent,UACC-62,87.74%
same,GI%,COLO 205,– (Only GI% higher than 20% are shown)
same,Growth Percent,COLO 205,124.60%
same,GI%,OVCAR-5,– (Only GI% higher than 20% are shown)
same,Growth Percent,OVCAR-5,107.97%
same,GI%,SK-OV-3,– (Only GI% higher than 20% are shown)
same,Growth Percent,SK-OV-3,89.56%
same,GI%,786-0,24%
same,Growth Percent,786-0,76.25%
same,GI%,CCRF-CEM,21%
same,Growth Percent,CCRF-CEM,78.66%
same,GI%,U251,21%
same,Growth Percent,U251,78.70%
same,GI%,IGROV1,– (Only GI% higher than 20% are shown)
same,Growth Percent,IGROV1,107.30%
